# Experimental data from US10014546B2 (priority 2012, dated 2018).
# Where two headings read alike, the source gives them in different places.
# What was measured:
# [1] = assay type: physicochemical
molecule,measurement,setting,value
iron tris-(α-hydroxyacetate) [Fe^III/II(α-hydroxyacetate)3],"E1/2, V vs. RHE",[1]; pH 8.1,−0.50 V vs. RHE
titanium bis-lactate [Ti^IV/III(lactate)2],"E1/2, V vs. RHE",[1]; pH 2,−0.03 V vs. RHE
same,"E1/2, V vs. RHE",[1]; pH 3.6,−0.40 V vs. RHE
same,"E1/2, V vs. RHE",[1]; pH 9,−0.40 V vs. RHE
"CC(O)C(=O)[O-].CC(O)C(=O)[O-].O=C([O-])c1ccccc1O.[Ti+3] [Ti^IV/III(lactate)2(salicylate), titanium bis-lactate mono-salicylate]",solubility,physchem,≥ 1500 mM
Sodium titanium(IV) triscitrate [Ti(citrate)3^2−/3−],"E1/2, V vs. RHE",[1]; pH 5,−0.04 V vs. RHE
"O.O.O.O.O.O.[Fe+3] [Fe^III/II(H2O)6, reference compound]","E1/2, V vs. RHE",[1]; pH 0,+0.77 V vs. RHE
iron tris-malate [Fe^III/II(malate)3],"E1/2, V vs. RHE",[1]; pH 9.2,−0.30 V vs. RHE
titanium mono-lactate [Ti^IV/III(lactate)1],"E1/2, V vs. RHE",[1]; pH 3.6,−0.34 V vs. RHE
same,"E1/2, V vs. RHE",[1]; pH 5.6,−0.40 V vs. RHE
same,"E1/2, V vs. RHE",[1]; pH 9,−0.54 V vs. RHE
"Oc1cccc2c1[O][Ti-2]13([O]2)([O]c2cccc(O)c2[O]1)[O]c1cccc(O)c1[O]3.[K+].[Na+] [Ti(pyrogallate)^2−/3−, Sodium potassium titanium(IV) trispyrogallate]","E1/2, V vs. RHE",[1]; pH 9.8,−0.55 V vs. RHE
